Paper PMC10600239, “Selective MCL-1 inhibitor ABBV-467 is efficacious in tumor models but is associated with cardiac troponin increases in patients” (Communications Medicine, 2023)

Test: Phase 1 first-in-human study (NCT04178902): safety
Format: in vivo
Text: This FIH study (NCT04178902) for ABBV-467 was a multicenter, open-label, dose-escalation study enrolling patients aged ≥18 years who had R/R MM, with the option to enroll R/R AML once recommended phase 2 dose (RP2D) was established. The study design was originally planned to consist of 2 parts: dose escalation and dose expansion, including a minimum of 6 patients treated during dose escalation at what was ultimately to be declared the RP2D. Patients must have received 3 or more prior lines of therapy including at least 1 or more immunomodulatory agents, 1 or more proteasome inhibitors, and 1 or more anti-CD38 monoclonal antibodies. Other eligibility criteria included: Eastern Cooperative Oncology Group performance status ≤2, measurable disease as defined by International Myeloma Working Group (IMWG) consensus criteria, an echocardiogram with an ejection fraction ≥50%, and adequate hematologic, hepatic, and renal function. The prespecified primary objectives were to characterize the safety and toxicity profiles, to establish the RP2D, and to determine the pharmacokinetic (PK) profile of ABBV-467 monotherapy. Safety evaluations included, but were not limited to, adverse event (AE) monitoring, physical examinations, vital sign measurements, electrocardiogram (ECG), cardiac enzyme monitoring, and clinical laboratory testing (hematology and chemistry) as a measure of safety and tolerability for the entire study duration. Parameters used to determine PK included maximum observed plasma concentration (Cmax), terminal elimination half-life (t1/2), area under the plasma concentration-time curve (AUC) from time 0 to time of last measurable concentration (AUCt), AUC from time 0 to infinity (AUC0-∞), and clearance using non-compartmental methods. Secondary objectives were preliminary evaluation of the efficacy of ABBV-467 in R/R MM and R/R AML. Preliminary efficacy endpoints were overall response rate (ORR), clinical benefit rate (CBR), and duration of response (DOR) as evaluated per adapted IMWG[36] criteria for MM and per adapted International Working Group (IWG)[37] and European Leukemia Net (ELN)[38] criteria for AML.
ABBV-467 was administered as an IV infusion once weekly, for each 28-day cycle over at least a 30-minute period beginning on day 1 of cycle 1. The first infusion was given at half the target dose level. Dosing increased from patient cohort to patient cohort; the escalation was guided by a Bayesian optimal interval design[39] on the basis of the cumulative number of patients who experienced a dose-limiting toxicity (DLT) at a given ABBV-467 dose level. The DLT observation period was defined as the first treatment cycle (cycle 1). AEs of any grade resulting in discontinuation of study drug or missing any dose as a result of toxicity unexplained by underlying disease will be considered a DLT. Any AE of grade 3 or higher will be considered a DLT, unless toxicity can solely be attributed to the underlying disease, with the following clarifications. A non-hematologic DLT was defined as: grade 3 mucositis, nausea, vomiting, or diarrhea that required total parenteral nutrition, tube feeding, or hospitalization lasting >72 h; any grade 4 non-hematologic laboratory abnormality; and any instance of an AE that met the definition of Hy’s Law.
Blood samples for plasma ABBV-467 concentration analysis were collected on days 1, 2, 3, and 15–17 of cycle 1 as well as on days 1 of cycles for PK analysis. Plasma samples of ABBV-467 were quantified using a validated LC-tandem MS with a lower limit of detection of 3 ng/mL. ABBV-467 PK parameters were calculated using standard non-compartmental approaches with Phoenix, WinNonlin (Version 8.0, Certara). AE severity was graded according to the National Cancer Institute Common Terminology Criteria for Adverse Events v5.0 for up to 30 days after the last dose. Analyses of AEs will include only treatment-emergent AEs. Triplicate ECGs were performed on days 1, 2, 15, and 16 of cycle 1. […]

## Cc1c(Cl)c2c(Cl)c(C)c1-c1c(-c3ccc(F)cc3)sc3ncnc(c13)O[C@@H](C(=O)O)Cc1cc(ccc1OCc1ccnc(-c3ccc(OC[C@H]4COCCO4)cc3)n1)OC[C@@H](CN1CCN(C)CC1)O2 [ABBV-467]
0.32 mg/kg (n = 2)
  Any AE, n (%): 2 (100) n (%)
  TEAE: Anemia: 1 (50) n (%)
  TEAE: Arthralgia: 0 n (%)
  TEAE: Arthritis: 0 n (%)
  TEAE: Diarrhea: 1 (50) n (%)
  TEAE: Febrile neutropenia: 0 n (%)
  TEAE: Gastritis: 0 n (%)
  TEAE: Increased alanine aminotransferase: 0 n (%)
  TEAE: Increased amylase: 0 n (%)
  TEAE: Increased aspartate aminotransferase: 0 n (%)
  TEAE: Increased troponin I: 1 (50) n (%)
  TEAE: Increased troponin T: 0 n (%)
  TEAE: Malaise: 1 (50) n (%)
  TEAE: Nausea: 0 n (%)
  TEAE: Neutropenia: 0 n (%)
  TEAE: Pain in extremity: 0 n (%)
  TEAE: Pelvic pain: 0 n (%)
  TEAE: Vitreous floaters: 0 n (%)
0.53 mg/kg (n = 3)
  Any AE, n (%): 3 (100) n (%)
  TEAE: Anemia: 0 n (%)
  TEAE: Arthralgia: 0 n (%)
  TEAE: Arthritis: 0 n (%)
  TEAE: Diarrhea: 0 n (%)
  TEAE: Febrile neutropenia: 0 n (%)
  TEAE: Gastritis: 0 n (%)
  TEAE: Increased alanine aminotransferase: 1 (33) n (%)
  TEAE: Increased amylase: 1 (33) n (%)
  TEAE: Increased aspartate aminotransferase: 2 (67) n (%)
  TEAE: Increased troponin I: 1 (33) n (%)
  TEAE: Increased troponin T: 1 (33) n (%)
  TEAE: Malaise: 0 n (%)
  TEAE: Nausea: 0 n (%)
  TEAE: Neutropenia: 0 n (%)
  TEAE: Pain in extremity: 0 n (%)
  TEAE: Pelvic pain: 0 n (%)
  TEAE: Vitreous floaters: 0 n (%)
1 patient, grade 3 treatment-related troponin I elevation leading to discontinuation
  dose-limiting toxicity: classified as a DLT
N = 8
  patients with grade 3 TEAEs: 3 patients
  patients with treatment-related AEs: 63%
Total (N = 8)
  Any AE, n (%): 7 (88) n (%)
  TEAE: Anemia: 1 (13) n (%)
  TEAE: Arthralgia: 1 (13) n (%)
  TEAE: Arthritis: 1 (13) n (%)
  TEAE: Diarrhea: 2 (25) n (%)
  TEAE: Febrile neutropenia: 1 (13) n (%)
  TEAE: Gastritis: 1 (13) n (%)
  TEAE: Increased alanine aminotransferase: 1 (13) n (%)
  TEAE: Increased amylase: 1 (13) n (%)
  TEAE: Increased aspartate aminotransferase: 2 (25) n (%)
  TEAE: Increased troponin I: 2 (25) n (%)
  TEAE: Increased troponin T: 2 (25) n (%)
  TEAE: Malaise: 1 (13) n (%)
  TEAE: Nausea: 2 (25) n (%)
  TEAE: Neutropenia: 1 (13) n (%)
  TEAE: Pain in extremity: 1 (13) n (%)
  TEAE: Pelvic pain: 1 (13) n (%)
  TEAE: Vitreous floaters: 1 (13) n (%)
Any dose cohort
  cardiac disorders: No cardiac disorders of any grade
  grade 5 toxicities: no grade 5 toxicities
